US10501473B2, “Fused heterocyclic ring compounds and method of treating retinal disease using same” (THE INDUSTRY & ACADEMIC COOPERATION IN CHUNGNAM NATIONAL …, priority 2014, dated 2019)

Tests used:
[1] = molecular target: T1, RIPK1 (receptor-interacting serine/threonine-protein kinase 1) (Homo sapiens (Human), UniProt Q13546); test: RIPK1 inhibitory activity, autophosphorylation of immuno-precipitated RIPK1 with [32P]γ-ATP; format: biochemical; settings: for activity at 100 µM: compound 100 μM, remaining RIPK1 phosphorylation; for inhibition at 100 µM: Table 2, 100 μM
T1 sequence (Q13546 whole entry, species assumed): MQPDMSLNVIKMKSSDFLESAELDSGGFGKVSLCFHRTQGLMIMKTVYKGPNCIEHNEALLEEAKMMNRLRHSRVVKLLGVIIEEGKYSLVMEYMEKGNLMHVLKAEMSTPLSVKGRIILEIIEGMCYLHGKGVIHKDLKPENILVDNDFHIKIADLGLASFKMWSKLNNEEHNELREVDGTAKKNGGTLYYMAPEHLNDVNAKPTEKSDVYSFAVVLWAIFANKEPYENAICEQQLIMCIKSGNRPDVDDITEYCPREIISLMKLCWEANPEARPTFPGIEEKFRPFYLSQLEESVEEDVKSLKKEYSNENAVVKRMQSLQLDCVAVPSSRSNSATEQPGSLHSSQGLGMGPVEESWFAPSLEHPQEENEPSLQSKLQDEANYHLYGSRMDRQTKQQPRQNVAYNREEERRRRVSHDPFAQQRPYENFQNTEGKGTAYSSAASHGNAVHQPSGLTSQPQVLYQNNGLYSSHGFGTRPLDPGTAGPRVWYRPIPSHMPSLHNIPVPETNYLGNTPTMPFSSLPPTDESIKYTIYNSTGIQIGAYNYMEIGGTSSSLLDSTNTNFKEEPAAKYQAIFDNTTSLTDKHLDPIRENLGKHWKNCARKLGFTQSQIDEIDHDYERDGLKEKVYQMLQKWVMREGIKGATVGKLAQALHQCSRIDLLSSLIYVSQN
Method: The following experiment was performed to evaluate RIPK1 (receptor-interacting serine/threonine-protein kinase 1) inhibitory activity of the compounds of examples of the invention.
(§1) RIPK1 enzyme immuno-precipitated in HEK293 (Human Embryonic Kidney 293) cell lysate was used as kinase. The experiment was performed according to the method described in Cell. 12; 137(6):1112-23(2009). RIPK1 protein was over-expressed in HEK293 cell line, to which lysis buffer (50 mM Tris-Cl [pH 8.0], 150 mM NaCl, 1 mM EDTA, 1% NP-40, 0.4 mM phenylmethylsulfonyl fluoride (PMSF)) was added for cell lysis. Centrifugation was performed at 13,000 rpm for 10 minutes to separate the supernatant. RIPK1 monoclonal antibody (610459, BD Bioscience) and A/G agarose beads (sc-2003, Santa Cruz Biotechnology) were added thereto, followed by immuno-precipitation in a 4° C. rotator for 12 hours.
The immune complex was washed with lysis buffer twice and then washed with kinase assay buffer (20 mM HEPES [pH7.6], 2 mM DTT, 1 mM NaF, 1 mM Na3Vo4, 20 mM β-glycerophosphate, 20 mM PNPP, 20 mM MgCl2, 20 mM MnCl2, 1 mM Benzamidie, and 1 mM EDTA) lastly. Kinase assay buffer and the compound were added to the RIPK1 immuno-precipitate, followed by reaction in a 24° C. constant-temperature water bath for 15 minutes. Additional reaction was induced for 30 minutes at 30° C. after 100 μM of ATP and 10 μCi[^32P] γ-ATP were added thereto. The reaction mixture was washed with kinase assay buffer once, to which protein loading buffer was added, followed by heating at 100° C. for 3 minutes. The reaction mixture was then loaded on 8% SDS-PAGE gel. Radioactive image of the phosphorylated RIPK1 was detected with FLA-7000 (GE healthcare). The image Quant TL program was used for the quantification.

[2] = test system: RGC-5 (rat ganglion cell); test: Retinal nerve protection under oxygen-glucose deprivation (OGD), LDH assay; format: cell-based; settings: RGC-5, OGD 15 hours, compound 20 μM, DMSO control = 100%
Method: The following experiment was performed to evaluate the protective effect of the compounds of examples of the invention on the retinal nerve under oxygen-glucose deprivation condition.
The retinal ganglion cell line RGC-5 (rat ganglion cell) was cultured in DMEM (Dulbecco's modified Eagle's medium) supplemented with 10% FBS (fetal bovine serum) and 1% penicillin/streptomycin. The cells were distributed in a 96-well plate at the density of 8×10^3 cells/well, followed by culture in a 37° C., CO2 incubator for 12 hours. The cells were washed with PBS once and the medium was replaced with glucose free DMEM. The cells were treated with either DMSO (0.1%) alone (control) or with the compounds of examples (20 μM) shown in Table 3, followed by culture in an anaerobic incubator (10% H2, 5% CO2, 85% N2, 37° C., chamber (ThermoForma, USA)) for 15 hours to induce cell death.
The level of cell death was measured by LDH (lactate dehydrogenase, Roche) assay. The LDH assay is a method for measuring the activity of LDH released from the damaged cells into the culture medium. NAD^+ was reduced to NADH and H^+ by LDH, and the bond of tetrazolium salt INT ring was cleaved by diaphorase to form formazan. Absorbance of the formazan was measured at 490 nm by using Victor 3 (PerkinElmer). The absorbance reflects the amount of dead cells.
The level of the control LDH under oxygen-glucose deprivation condition was regarded as 100%, and the level of LDH in the cell group cultured in normal medium (10% FBS, DMEM) for the same time was regarded as 0%. Based on that, the levels of LDH of the cell groups treated with the compounds of the invention under oxygen-glucose deprivation condition were converted into the relative ratio of cell death. The compounds of examples of the invention were treated to wells, each compound for three wells, and then each experiment was performed in triplicate.

[3] = molecular target: T1, RIPK1 (receptor-interacting serine/threonine-protein kinase 1); test: IC50 to RIPK1, immuno-precipitated enzyme with [32P]γ-ATP; format: biochemical; settings: 10-0.05 μM, 100 μM ATP
Method: RIPK1 enzyme immuno-precipitated in HEK293 (Human Embryonic Kidney 293) cell lysate was used as a kinase. The experiment was performed according to the method described in Cell. 12; 137(6):1112-23(2009).
as §1, with “RIPK1” for “RIPK1 enzyme immuno-precipitated in HEK293 (Human Embryonic Kidney 293) cell lysate was used as kinase. The experiment was performed according to the method described in Cell. 12; 137(6):1112-23(2009). RIPK1”
The compounds of examples of the invention were diluted at the different concentrations of 10 μM˜0.05 μM (10, 5, 1, 0.5, 0.1, 0.05 uM) and mixed with the immuno-precipitated RIPK1 enzyme, followed by reaction in a 24° C. constant-temperature water bath for 15 minutes. Additional reaction was induced for 30 minutes at 30° C. after 100 μM of ATP and 10 μCi[^32P] γ-ATP were added thereto. The reaction mixture was washed with buffer once, to which protein loading buffer was added, followed by heating at 100° C. for 3 minutes. The reaction mixture was then loaded on 8% SDS-PAGE gel. Radioactive image of the phosphorylated RIPK1 was detected with FLA-7000 (GE healthcare). The image Quant TL program was used for the quantification. Based on the results, IC50 of the compound was calculated by using sigmaplot 10.0 program.

[4] = test system: RGC-5 (rat ganglion cell-5); test: Retinal neuron protection under necroptosis inducing (TCZ; TNFα+cycloheximide+zVAD) condition, LDH assay; format: cell-based; settings: RGC-5, TCZ 15 hours, compound 20 μM, DMSO control = 100%
Method: The following experiment was performed to evaluate the retinal neuron protection effect of the compounds of the invention under necroptosis inducing condition.
The retinal ganglion cell line RGC-5 (rat ganglion cell-5) was cultured in DMEM (Dulbecco's modified Eagle's medium) supplemented with 10% FBS (fetal bovine serum) and 1% penicillin/streptomycin. The cells were distributed in a 96-well plate at the density of 8×10^3 cells/well, followed by culture in a 37° C., CO2 incubator for 12 hours. The medium supplemented with TNFα (10 ng/ml), cycloheximide (10 μg/ml), and zVAD (10 μM) (TCZ) was treated with DMSO (0.1%) alone (control) or with the compounds of the invention (20 μM), followed by additional culture in a 37° C., CO2 incubator for 15 hours to induce cell death.
The level of cell death was measured by LDH (lactate dehydrogenase, Roche) assay. The level of the control LDH under TCZ condition was regarded as 100%, and the level of LDH in the cell group cultured in normal medium (10% FBS, DMEM) for the same time was used for the measurement of the relative rate of cell death. The compounds of examples of the invention were treated to wells, each compound for three wells, and then each experiment was performed in triplicate.

Structure (SMILES)	activity at 100 µM [1] [%]	Death of retinal nerve cell (%) [2] [%]	IC50 [3] [nM]	Death of retinal nerve cell (%) [4] [%]	inhibition at 100 µM [1] [%]
O=C(c1cc2c(-c3ccc(F)cc3)ccnc2s1)N1CCOCC1 [Example 4, (4-(4-fluorophenyl)thieno[2,3-b]pyridine-2-yl)(morpholino)methanone]	3 ± 1.4	57.8 ± 8.9	1120	–	–
Cc1ccc2cc(C(=O)N3CCOCC3)sc2c1C [Example 18, (6,7-dimethylbenzo[b]thiophene-2-yl)(morpholino)methanone]	76.5 ± 12	37.0 ± 1.7	–	74.6 ± 8.2	–
COc1ccc2cc(C(=O)N3CCOCC3)sc2c1 [Example 19, (6-methoxybenzo[b]thiophene-2-yl)(morpholino)methanone]	81 ± 26.9	70.9 ± 9.7	–	71.6 ± 9.1	–
Cc1ccc2[nH]c(C(=O)N3CCOCC3)cc2c1 [Example 21, (5-methyl-1H-indole-2-yl)(morpholino)methanone]	81 ± 17	64.7 ± 7.1	–	89.9 ± 19.4	–
COc1ccc2[nH]c(C(=O)N3CCOCC3)cc2c1 [Example 22, (5-methoxy-1H-indole-2-yl)(morpholino)methanone]	43.5 ± 10.6	78.6 ± 13.8	–	69.5 ± 7.4	≥ 50
O=C(c1nc2ccccc2[nH]1)N1CCOCC1 [Example 23, (1H-benzo[d]imidazole-2-yl)(morpholino)methanone]	69 ± 24.5	45.6 ± 3.6	–	69.2 ± 4.2	–
COc1ccc2[nH]c(C(=O)N3CCOCC3)nc2c1 [Example 24, (5-methoxy-1H-benzo[d]imidazole-2-yl)(morpholino)methanone]	52 ± 17.1	76.4 ± 13.4	–	66.6 ± 9.9	–
Cn1c(C(=O)N2CCOCC2)cc2ccccc21 [Example 25, (1-methyl-1H-indole-2-yl)(morpholino)methanone]	43	37.0 ± 1.2	–	64.8 ± 11.2	≥ 50
COc1ccc2oc(C(=O)N3CCOCC3)cc2c1 [Example 26, (5-methoxybenzofuran-2-yl)(morpholino)methanone]	81.4 ± 29.3	48.6 ± 6.5	–	75.9 ± 15.1	–
Cc1ccc2cc(C(=O)N3CCOCC3)oc2c1 [Example 27, (6-methylbenzofuran-2-yl)(morpholino)methanone]	86 ± 17	53.7 ± 9.1	–	86.1 ± 1.3	–
Nc1ccc2sc(C(=O)N3CCOCC3)cc2c1 [Example 28, (5-aminobenzo[b]thiophene-2-yl)(morpholino)methanone]	73 ± 38.2	60.0 ± 8.2	–	84.3 ± 1.7	–
O=C(c1cc2cccc(Br)c2s1)N1CCOCC1 [Example 29, (7-bromobenzo[b]thiophene-2-yl)(morpholino)methanone]	82.5 ± 24.7	51.4 ± 10.9	–	78.4 ± 6.5	–
O=C(c1cc2c(-c3ccccc3F)cccc2s1)N1CCOCC1 [Example 30, (4-(2-fluorophenyl)benzo[b]thiophene-2-yl)(morpholino)methanone]	0.4 ± 0.1	51.0 ± 5.9	102	–	–
O=C(c1cc2c(-c3cccc(F)c3)cccc2s1)N1CCOCC1 [Example 36, (4-(3-fluorophenyl)benzo[b]thiophene-2-yl)(morpholino)methanone]	4 ± 2.8	58.0 ± 3.8	17.7	–	–
Cl.O=C(c1cc2c(-c3ccc(F)cc3)cccc2s1)N1CCNCC1 [Example 38, (4-(4-fluorophenyl)benzo[b]thiophene-2-yl)(piperazine-1-yl)methanone hydrochloride]	62 ± 12	59.9 ± 0.2	–	72.4 ± 7.5	–
O=C(c1cc2c(-c3ccc(F)cc3)cccc2s1)N1CCCCC1 [Example 47, (4-(4-fluorophenyl)benzo[b]thiophene-2-yl) (piperidine-1-yl)methanone]	20 ± 14.1	59.1 ± 1.6	–	89.1 ± 1.2	–
O=C(c1cc2c(-c3ccc(F)cc3)cccc2s1)N1CCSCC1 [Example 51, (4-(4-fluorophenyl)benzo[b]thiophene-2-yl)(thiomorpholino)methanone]	2.5 ± 0.7	44.7 ± 6.3	217	–	–
O=C(c1cc2cccc(-c3ccc(F)cc3)c2s1)N1CCOCC1 [Example 65, (7-(4-fluorophenyl)benzo[b]thiophene-2-yl)(morpholino)methanone]	67	79.6 ± 5.5	–	77.8 ± 9.6	–
O=C(c1cc2c(-c3ccsc3)cccc2s1)N1CCOCC1 [Example 76, morpholino(4-(thiophene-3-yl)benzo[b]thiophene-2-yl)methanone]	1.5 ± 0.7	–	61.2	–	–
